Structures can show the parent of a compound that is named as a salt.
| melting point | Compound |
| --- | --- |
| 215 to 220 °C | [Br-].c1ccc(P(c2ccccc2)c2cccc([P+](c3ccccc3)(c3ccccc3)c3ccccc3)c2)cc1 |
| 72 to 76 °C | BrCc1ccc(-c2ccc([P+](c3ccccc3)(c3ccccc3)c3ccccc3)cc2)cc1 (as salt: perchlorate) [(16), 4-(4-bromomethylphenyl)phenyl triphenylphosphonium perchlorate] |

Source: patent US8067440B2, “Phosphonium salts derivatives and uses thereof” (Valorisation-Recherche, Limited Partnership, priority 2004, dated 2011)
